Columns and labels:
Type in all cases: in vivo
[1] = system: army worm caterpillars (Spodoptera frugiperda); experiment: Spodoptera frugiperda test (Example G); details: found effect, dipped cabbage leaves
Description: (§1) Spodoptera frugiperda Test
(§2) • Solvent: 7 parts by weight of dimethylformamide • Emulsifier: 2 parts by weight of alkylaryl polyglycol ether
(§3) Cabbage leaves (Brassica oleracea) are treated by being dipped into the active compound preparation of the desired concentration and are populated with army worm caterpillars (Spodoptera frugiperda) while the leaves are still moist.
(§4) After the desired period, the destruction in % is determined. 100% means that all of the caterpillars have been destroyed; 0% means that no caterpillars have been destroyed. The destruction values determined are calculated using Carpenter's formula.

[2] = system: mustard beetle larvae (Phaedon cochleariae); experiment: Phaedon larvae test (Example F); details: found effect, dipped cabbage leaves
Description: as §2
(§5) After the desired period, the destruction in % is determined. 100% means that all of the beetle larvae have been destroyed; 0% means that no beetle larvae have been destroyed. The destruction values determined are calculated using Carpenter's formula.

[3] = system: Heliothis armigera caterpillars; details: found effect, dipped soya bean shoots (Glycine max)
Description: as §2
Soya bean shoots (Glycine max) are treated by being dipped into the active compound preparation of the desired concentration and are populated with Heliothis armigera caterpillars while the leaves are still moist.
After the desired period, the destruction in % is determined. 100% means that all of the caterpillars have been destroyed; 0% means that no caterpillars have been destroyed. The destruction values determined are calculated using Carpenter's formula (see previous page).

[4] = system: diamond-back moth caterpillars (Plutella xylostella, sensitive strain); experiment: Plutella test, sensitive strain (Example C); details: found effect, dipped cabbage leaves
Description: Plutella Test, Sensitive Strain
as §2
Cabbage leaves (Brassica oleracea) are treated by being dipped into the active compound preparation of the desired concentration and are populated with diamond-back moth caterpillars (Plutella xylostella, sensitive strain) while the leaves are still moist.
as §4

[5] = system: army worm caterpillars (Spodoptera frugiperda); details: found effect, dipped cabbage leaves
Description: as §1
• Solvent: 7 parts by weight of dimethylformamide • Emulsifier: 2 parts by weight of alkylaryl polyglycol ether.
as §3, §4

[6] = system: diamond-back moth caterpillars (Plutella xylostella, resistant strain); experiment: Plutella test, resistant strain (Example D); details: found effect, dipped cabbage leaves
Description: Plutella Test, Resistant Strain
as §2
Cabbage leaves (Brassica oleracea) are treated by being dipped into the active compound preparation of the desired concentration and are populated with diamond-back moth caterpillars (Plutella xylostella, resistant strain) while the leaves are still moist.
as §4

[7] = system: mustard beetle larvae (Phaedon cochleariae); details: found effect, dipped cabbage leaves (Brassica oleracea)
Description: as §2, §5

Compound	LC95 after 6 days [1] [ppm]	LC95 after 6 days [2] [ppm]	LC50 after 6 days [3] [ppm]	LC95 after 6 days [4] [ppm]	LC50 after 6 days [5] [ppm]	LC95 after 6 days [6] [ppm]	LC50 after 6 days [7] [ppm]
CC[C@H](C)[C@H]1O[C@]2(C=C[C@@H]1C)C[C@@H]1C[C@@H](C/C=C(\C)[C@@H](O[C@H]3C[C@H](OC)[C@@H](O[C@H]4C[C@H](OC)[C@@H](O)[C@H](C)O4)[C@H](C)O3)[C@@H](C)/C=C/C=C3\CO[C@@H]4[C@H](O)C(C)=C[C@@H](C(=O)O1)[C@]34O)O2 [Avermectin, abamectin]	30.104	0.345	–	–	–	–	–
emamectin benzoate	–	–	0.007	0.0009	0.0029	0.0033	0.026

From US20050130913A1, “Synergistic insecticidal mixtures” (priority 2002, published 2005)
